Measured values reported in article PMC9303812, “Asymmetrically Substituted m‐Terphenyl Phosphates Inhibit the Transcription Factor STAT5a” (Chembiochem, 2021).

Assays:
STAT1 = target: T1, STAT1 (Homo sapiens, UniProt P42224); assay: Fluorescence polarization (FP) binding assay, STAT1
T1 sequence (P42224 1-750): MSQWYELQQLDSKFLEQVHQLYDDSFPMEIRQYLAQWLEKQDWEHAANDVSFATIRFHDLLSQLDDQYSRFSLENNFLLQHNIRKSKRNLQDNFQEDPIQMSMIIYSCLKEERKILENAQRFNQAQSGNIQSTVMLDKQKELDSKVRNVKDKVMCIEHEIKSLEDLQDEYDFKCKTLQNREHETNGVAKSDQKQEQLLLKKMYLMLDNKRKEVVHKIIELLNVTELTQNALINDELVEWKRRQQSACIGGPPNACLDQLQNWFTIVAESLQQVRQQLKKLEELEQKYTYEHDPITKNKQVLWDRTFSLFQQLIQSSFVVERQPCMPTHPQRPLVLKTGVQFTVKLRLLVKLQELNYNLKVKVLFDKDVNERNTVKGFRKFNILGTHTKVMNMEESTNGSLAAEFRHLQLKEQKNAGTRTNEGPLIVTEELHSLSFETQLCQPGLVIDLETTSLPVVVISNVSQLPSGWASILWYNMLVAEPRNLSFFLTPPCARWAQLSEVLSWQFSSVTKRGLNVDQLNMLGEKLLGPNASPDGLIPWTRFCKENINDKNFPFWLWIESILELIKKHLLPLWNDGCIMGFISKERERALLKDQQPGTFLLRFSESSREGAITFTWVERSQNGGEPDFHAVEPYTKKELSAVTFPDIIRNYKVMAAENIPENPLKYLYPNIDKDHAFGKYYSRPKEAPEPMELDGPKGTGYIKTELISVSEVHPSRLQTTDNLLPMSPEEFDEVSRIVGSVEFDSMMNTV
Procedure: (§1) Ki values were calculated from IC50 values using the published equation.[2] […]
(§2) Table S2: Activities of 12 against STAT5 proteins in FP assays.
(§3) Fluorescence polarization assays
(§4) Fluorescence polarization assays were essentially carried out as previously described.[1] These assays quantitate to which extent a test compound is able to interfere with binding between a STAT protein and a fluorescein-labeled phosphotyrosine-containing peptide, which is known to bind to the SH2 domain of the respective STAT protein. The following protein […]
(§5) concentrations were used: 100 nM for STAT1, 150 nM for STAT3, 30 nM for STAT4, 180 nM for STAT5a, 90 nM for STAT5b and 105 nM for STAT6. All peptides were used at a concentration of 10 nM. The following peptides were used: 5 -carboxyfluorescein -GpYDKPHVL for STAT1; 5-carboxyfluorescein -GpYLPQTV-NH2 for STAT3; 5-carboxyfluorescein-GpYLPQNID-OH for STAT4; 5-carboxyfluorescein-GpYLVLDKW for STAT5a/b, and 5-carboxyfluorescein-GpYVPWQDLI-OH for STAT6. As a buffer system, 10 mM Tris (pH 8.0), 50 mM NaCl, 1 mM EDTA, 1 mM DTT, 0.1 % Nonidet P-40 substitute, and 2 % DMSO in water was used. All compounds tested were incubated for 1 h with the protein. Subsequently, the fluorescein-labeled peptide was added and the fluorescence polarization was measured with an Infinite F500 plate reader (Tecan) after another hour. IC50 values were converted to Ki-values using the published equation.[2] […]
(§6) 3:2 solution was added . The solution was degassed by applying ultrasonic under vacuum for one minute four times. 14 mg of Pd(PPh3)4 (12 µmol, 5 mol %) were added and the solution was refluxed overnight. After cooling down, the mixture was extracted with ethyl acetate, washed with brine and dried over Na2SO4. The crude product was purified by flash column […]
(§7) Method 2: Synthesis of dibenzylphosphate esters
(§8) The corresponding phenol (1 eq.) was dissolved in 10 ml/mmol MeCN or DMF and CCl4 (5 eq.), DIPEA (2 eq.) and DMAP (0.1 eq.) were added. After cooling down to 0°C, dibenzyl phosphite (1.5 eq.) was added dropwise and stirring was continued at the same temperature. […]

STAT6 = target: T2, STAT6 (Homo sapiens, UniProt P42226); assay: Fluorescence polarization (FP) binding assay, STAT6
T2 sequence (P42226 1-847): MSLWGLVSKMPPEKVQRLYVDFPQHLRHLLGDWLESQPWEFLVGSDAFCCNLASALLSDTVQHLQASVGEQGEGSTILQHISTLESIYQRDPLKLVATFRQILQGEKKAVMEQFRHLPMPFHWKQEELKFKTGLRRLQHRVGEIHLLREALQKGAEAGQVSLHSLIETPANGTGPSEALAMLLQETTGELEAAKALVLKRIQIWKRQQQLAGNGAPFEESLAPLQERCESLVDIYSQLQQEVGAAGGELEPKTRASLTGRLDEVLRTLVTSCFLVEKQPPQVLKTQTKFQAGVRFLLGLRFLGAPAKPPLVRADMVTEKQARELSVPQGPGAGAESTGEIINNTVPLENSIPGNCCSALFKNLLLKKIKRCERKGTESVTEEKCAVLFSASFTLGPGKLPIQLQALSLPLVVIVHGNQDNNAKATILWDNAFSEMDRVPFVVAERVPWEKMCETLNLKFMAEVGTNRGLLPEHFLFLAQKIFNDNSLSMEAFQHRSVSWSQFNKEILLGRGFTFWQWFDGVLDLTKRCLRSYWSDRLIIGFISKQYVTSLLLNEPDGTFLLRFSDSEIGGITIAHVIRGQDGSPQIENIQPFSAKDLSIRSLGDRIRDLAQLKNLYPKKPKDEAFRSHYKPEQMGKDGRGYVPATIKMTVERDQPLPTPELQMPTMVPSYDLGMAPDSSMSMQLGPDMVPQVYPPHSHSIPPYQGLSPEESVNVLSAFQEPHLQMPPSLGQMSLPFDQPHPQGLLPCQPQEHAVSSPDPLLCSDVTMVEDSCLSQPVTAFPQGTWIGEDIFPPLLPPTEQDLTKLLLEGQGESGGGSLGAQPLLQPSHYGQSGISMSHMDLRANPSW
Procedure: as §1, §2, §3, §4, §5, §6, §7, §8

[1] = FP assay, Ki calculated from IC50 (n=3)

IC50 (STAT1; FP assay) | Ki (STAT1; [1]) | IC50 (STAT6; FP assay) | Ki (STAT6; [1]) | Structure (SMILES) | inhibition at 200 µM (STAT1; read-out: STAT1 inhibition at 200 μM) | inhibition at 200 µM (STAT6; read-out: STAT6 inhibition at 200 μM)
– | – | – | – | COc1cc(-c2cc(OP(=O)(O)O)cc(-c3cc(F)c(F)c(F)c3)c2)cc(OC)c1OC [6 b] | 51 ± 5% | 39 ± 1%
90.6 ± 0.2 µM | 44.6 ± 0.1 µM | 144 ± 2.8 µM | 71.5 ± 1.4 µM | COc1cc(-c2cc(-c3cc(F)c(F)c(F)c3)cc(C(F)P(=O)(O)O)c2)cc(OC)c1OC (stereo not drawn) [compound 12] | – | –
